Legend:
[1] = test system: UHRF1 mRNA; experiment: qRT-PCR of UHRF1 gene expression in MM cells; format: cell-based; conditions: drug sensitive MM (FIG. 6 title)
Protocol: (§1) FIG. 1A-1F. Down regulation of UHRF1 transcription by IMiDs correlates with drug sensitivity of multiple myeloma. (1A) Volcano plot of protein expression changes determined by mass spectrometry in H929 cells at 24 hr of treatment with CC-220 (0.1 μM) or DMSO control. X axis, Log2fold change (FC); Y axis, significance,-log 10 [p-value]. […] (1B) Volcano plot of gene expression changes determined by Affymetrix microarray in H929 cells treated with POM (1 μM) or DMSO for 24 hr. X axis, Log2fold change (FC); Y axis, significance,-log 10 [p-value], n=2 technical replicates). […] (1C) Western blot analysis protein expression of UHRF1, Ikaros, Aiolos and ZFP91 in H929 cells treated with 1 μM POM for indicated time. (1D) qRT-PCR analysis of UHRF1 gene expression levels in cells as in (1C). Error bars represent the SEM from duplicate measurements. (1E) Western blot analysis protein expression of UHRF1 and indicated proteins in MM cells treated with DMSO (−) or 1 μM POM (+) for 3 days. GAPDH serves as a loading control. (1F) Thymidine incorporation of various MM cell lines treated with indicated dose of POM for 3 days. Error bars represent the SEM from technical replicates.
FIG. 2A-2E. UHRF1 expression is positively regulated by Ikaros and Aiolos in IMiDs sensitive MM cells. (2A) Western blot analysis protein expression of UHRF1, Ikaros, Aiolos, ZFP91 and Cereblon expression in control [shLuciferase (shLuc)] and cereblon knockdown (shCRBN) H929 cells treated with DMSO and 1 μM POM for 3 days. GAPDH, loading control. Arrow head, UHRF1. (2B) qRT-PCR analysis of UHRF1 gene expression levels in cells as in (2A). Data was normalized to ACTB. Error bars represent the SEM of technical duplicates. *** P<0.001 (Two-tailed unpaired Student's t-test). (2C) Western blot analysis protein expression of UHRF1, Ikaros and Aiolos in stably transduced H929 cells after Dox induction (0, 10, 50 or 100 ng/ml) for 3 days of non-target shRNA (shNT) or shRNAs targeting Ikaros (shIKZF1) or Aiolos (shIKZF3). (2D) qRT-PCR analysis of UHRF1 gene expression levels in cells as in (2C). Shown are cells induced with Dox (50 ng/ml) for 3 days. Data was normalized to GAPDH. Error bars represent the SEM of technical duplicates. *P<0.05, ** P<0.01, *** P<0.001, **** P<0.0001 (Two-tailed unpaired Student's t-test). (2E) ChIP-qPCR analysis of the occupancy Aiolos (upper panel) or H3K27ac (lower panel) occupancy at transcription star site (TSS), gene body (+7 kb) and gene end (GE) of UHRF1 gene in H929, MM1.S or RPMI 8226 cells treated with DMSO or 1 μM POM for 24 hr. ChIP with control rabbit IgG (IgG) serves as a negative control. Error bars represent the SEM of technical triplicates. * P<0.05, ** P<0.01, **** P<0.0001 (Two-tailed unpaired Student's t-test).
FIG. 6A-6D. […] (6A) Immunocytochemistry assay of UHRF1 in H929 cells treated with DMSO or 1 μM POM for 48 hrs. (6B) qRT-PCR analysis of UHRF1 gene expression levels in indicated MM cells treated with indicated doses of POM for 3 days. Data was normalized to ACTB. Error bars represent the SEM from duplicate measurements. * P<0.05, ** P<0.01, *** P<0.001, **** P<0.0001 (Two-tailed Student's t-test). […]
Total RNA was extracted by RNeasy Mini Kit (Qiagen) and reverse transcribed by iScrip cDNA Synthesis Kit (Bio-rad). Quantitative real-time PCR (qPCR) was conducted on a VillA 7 System using the Power SYBR Green PCR Master Mix (Applied Biosystems). Gene expression values were calculated by normalization to Actb using the comparative CT method.

[2] = test system: UHRF1; experiment: Protein expression changes by mass spectrometry in H929 cells; format: cell-based; conditions: CC-220 0.1 μM, 24 hr vs DMSO
Protocol: as §1, with “replicates. […]” for “replicates.”

[3] = test system: acute myeloid leukemia (AML); conditions: administered alone; cited from earlier work

O=C1CC[C@H](N2Cc3c(OCc4ccc(CN5CCOCC5)cc4)cccc3C2=O)C(=O)N1 [CC-220]
UHRF1 gene expression [1]: downregulated
UHRF1 protein expression change (mass spectrometry) [2]: one of the most significantly downregulated proteins

CT-011: anti-PD-1 antibody, a humanized antibody
response in treating AML at relapse [3]: failed to show response
